In patent US20250320471A1, “Method for Producing Compounds, Method for Producing Compound Library, Compound Library, and Screening Method” (The University of Tokyo, priority 2021, published 2025):
Positions count from the first letter of the chain named. Numbers in names are those of the source. Where “and” joins values, the source holds several entries; their conditions need not be identical. Equal values may be shown once. Peptide text beside a SMILES is read from it.

What was measured:
PagF = details: Tyr C5 O-prenylation; cited from earlier work
Fnq26 = biological target: T1, Fnq26 (Streptomyces virginiae, UniProt A2AXG5); details: Aromatic C10 O-prenylation; cited from earlier work
T1 sequence (A2AXG5 1-300): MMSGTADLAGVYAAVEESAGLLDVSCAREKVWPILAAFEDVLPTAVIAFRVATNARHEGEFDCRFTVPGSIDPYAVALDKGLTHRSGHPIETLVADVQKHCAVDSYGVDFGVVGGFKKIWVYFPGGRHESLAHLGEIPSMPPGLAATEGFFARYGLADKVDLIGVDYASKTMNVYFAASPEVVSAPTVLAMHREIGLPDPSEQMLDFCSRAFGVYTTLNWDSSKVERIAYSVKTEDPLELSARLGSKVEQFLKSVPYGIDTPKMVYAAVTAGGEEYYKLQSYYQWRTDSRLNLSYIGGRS

PirF = details: Tyr C10 O-prenylation; cited from earlier work
LimF [1] = test: Initial evaluation of LimF with estimated substrates bcLimE1-3 (LC-MS); assay type: biochemical, Limnothrix sp. CACIAM 69d; details: for geranylation by LimF (LC-MS): 20 μM LimF, 20 μM peptide, 2 mM geranyl pyrophosphate, 20 mM MgCl2, pH 7.5, 37° C., 12 hours
Experimental: In order to examine the enzymatic activity of LimF, LimF was heterologously-expressed in Escherichia coli using the method described above and incubated with chemically synthesized bcLimE1, bcLimE2 or bcLimE3 in the presence of MgCl2 and a prenyl group donor (geranyl pyrophosphate (GPP)). The reaction conditions were as described below.
First, the same experiment as described above was performed using farnesyl pyrophosphate instead of geranyl pyrophosphate as a prenyl group donor. As a result, a trace amount of farnesylated bcLimE2 was generated, although at a lower efficiency than when GPP was used.
The initial evaluation of LimF using estimated substrates (bcLimE1, bcLimE2, and bcLimE3) was performed as follows. An enzymatic reaction was performed for 12 hours at 37° C. under the conditions of LimF (20 μM), peptide substrate (20 μM), prenyl group donor (geranyl pyrophosphate or farnesyl pyrophosphate) (2 mM), HEPES (50 mM, pH 7.5), MgCl2 (20 mM), and DTT (1 mM). After reacting the substrates bcLimE1, bcLimE2, and bcLimE3 for 12 hours at 37° C., respectively, nine times the amount of 1% TFA was added and centrifuged at 4° C. (15300×g, 10 minutes), and a supernatant was recovered. 10 μL of the obtained supernatant was subjected to LC-MS analysis.

LimF [2] = test: Steady-state kinetics of prenylation facilitated by LimF (wild type); assay type: biochemical, Limnothrix sp. CACIAM 69d
Experimental: Under optimal conditions, the steady-state kinetic parameters of the prenylation reaction of bcLimE2 facilitated by LimF were measured by the methods described below.
The concentration dependence of GPP and MgCl2 in bcLimE2 prenylation reactions facilitated by LimF was measured in reaction systems containing 1 μM LimF, 1 mM or a suitably modified concentration of GPP, 50 mM HEPES pH 7.2, 0.4 mM substrate, 1 mM DTT, and 40 mM or a suitably modified concentration of MgCl2. A reaction solution containing components other than GPP was prepared and preheated to 25° C., and the reaction was then started by adding GPP. After incubating at 25° C., the reaction was stopped at each point and analyzed by LC-MS. Next, the initial rate was calculated as the slope of increase in the amount of prenylation product produced in the linear region. Three separate reactions were carried out under each condition and the mean and standard deviation of the results were used for the analysis.
For GPP concentration dependence and peptide substrate concentration dependence, the kinetic parameters were estimated by fitting the initial rate and GPP substrate concentration or peptide substrate concentration to the Michaelis-Menten model in Graphpad Prism 8.4.2 (GraphPad Prism Software Inc., San Diego, California) software.
Kinetic parameters of the His-prenylation reaction facilitated by LimF were determined based on reactions under optimal conditions using substrates of different concentrations. For the Tyr-prenylation described below, the kinetic parameters were measured under the same conditions except that LimF was set to 5 μM and the reaction temperature was set to 16° C. In order to estimate the kinetic parameters, the initial rate and substrate concentration were fitted to the Michaelis-Menten model in Graphpad Prism 8.4.2 software.
In order to further evaluate the two different prenylation modes by LimF, two teMPs (teR6-H5A/Y7H and teR6-H5A) that undergo efficient His-prenylation and Tyr-prenylation, respectively, were designed and chemically synthesized. Kinetic analysis was carried out according to the above method using these peptides.

bcLimE2 [3] = test: Prenyl group donor tolerance of LimF variants (conversion of bcLimE2); assay type: biochemical; set-up: key to Final Conversion Efficiency: “n.r.” indicates that the reaction did not proceed; details: for Final Conversion Efficiency: substrate bcLimE2
Experimental: An attempt was made to change the selectivity of LimF with respect to prenyl group donors examined in “2. Evaluation of Enzymatic Activity of LimF” by introducing a mutation into LimF. […], illustrated in FIG. 7(a), was used as the substrate.
(§1) For the assay of LimF variants, 100 μM bcLimE2 was incubated individually at a 5 μL scale with 20 to 100 μM LimF variants under conditions of 1 mM GPP or DMAPP, 50 mM HEPES (pH 7.2), 40 mM MgCl2, 1 mM DTT, and DMSO (4%, v/v). After incubating for 16 hours at 25° C., the reaction was stopped by adding 9 times the amount (45 μL) of a 1% TFA aqueous solution. Next, the mixture was incubated on ice for 10 minutes, a precipitate was separated by centrifugation at 4° C. (15300×g, 10 minutes), and 1 μL of supernatant was subjected to LC-MS analysis.
An amino acid forming a small pocket that stores a prenyl group in the crystal structure was selected for the introduction site of the LimF mutation. Specifically, Gly at position 224 was selected, and this was substituted with a larger amino acid. […] This alignment supports the hypothesis that the 224th Gly contributes to prenyl group selectivity.
as §1, with “[…]” for “5 μL”, “or FPP,” for “or DMAPP,”, “7.2), 5” for “7.2), 40”, “([…])” for “(45 μL)”
An amino acid forming a small pocket that stores a prenyl group in the crystal structure was selected for the introduction site of the LimF mutation. Specifically, the amino acids at the positions described in the table in the left column of FIG. 19 were replaced with relatively small Ala.
Therefore, substitution of amino acids other than Ala with respect to the W273 position was comprehensively performed (middle column of FIG. 19). As a result, The mutation for W273N and W273T are focused, and in addition to the W273N mutation and the W273T mutation, simultaneous substitution with various amino acids was performed for His at 239, which is an amino acid adjacent to position 273 (right column of FIG. 19).

bcLimE2 [4] = biological target: T2, bcLimE2
T2 chain: RYPHEEIP

[5] = His-prenylation (C10), 1 mM GPP, 40 mM MgCl2, pH 7.2, 25° C.
[6] = Tyr-prenylation (C10 O-), 5 μM LimF, 16° C.

In the case of `N[C@@H](Cc1ccc(O)cc1)C(=O)N[C@@H](Cc1ccc(O)cc1)C(=O)N[C@@H](Cc1ccc(O)cc1)C(=O)O` [YYY] (H-Tyr-Tyr-Tyr-OH), the Kcat (PagF) is listed as 0.0967 s⁻¹ and the Km (PagF) is listed as 160 µM.

In the case of `O=C(O)c1ccc(O)cc1` [4-hydroxy-benzoate], the Kcat (Fnq26) is listed as 0.00233 s⁻¹ and the Km (Fnq26) is listed as 5600 µM.

In the case of MSGVDYYNPFAGDDAE, the Kcat (PirF) is given as 0.0183 s⁻¹ and the Km (PirF) is given as 118 µM.

With `CCC(C)C1NC(=O)C(CC(N)=O)NC(=O)C(C(C)O)NC(=O)C(C(C)CC)NC(=O)C2CCCN2C(=O)C(CC(=O)O)NC(=O)C(Cc2ccc(O)cc2)NC(=O)C(Cc2ccccc2)NC1=O` (stereo not drawn) [bcLimE3] (cyclo(DPITNIFY); configuration not given here) the “geranylation by LimF (LC-MS)” value (LimF [1]) was “not subjected to geranylation”.

In the case of `CCC(C)C1NC(=O)C(CCC(=O)O)NC(=O)C(CCC(=O)O)NC(=O)C(Cc2c[nH]cn2)NC(=O)C2CCCN2C(=O)C(Cc2ccc(O)cc2)NC(=O)C(CCCNC(=N)N)NC(=O)C2CCCN2C1=O` (stereo not drawn) [bcLimE2] (cyclo(EEIPRYPH); configuration not given here), the Kcat (LimF [2]; [5]) is reported as 0.23 ± 0.01 s⁻¹, the Km (LimF [2]; [5]) is reported as 313 µM and 310 µM and the Kcat (LimF [2]; His-prenylation (C10), 1 mM GPP, 40 mM MgCl2, pH 7.2, 25° C., listed as cyclo[RYPHEEIP]) is reported as 0.23 s⁻¹. The “geranylation by LimF (LC-MS)” value (LimF [1]) was “quantitatively converted” and the “farnesylation by LimF” value (LimF [1]; farnesyl pyrophosphate instead of GPP as prenyl group donor, otherwise as geranylation test) was “trace amount”.

For `O=C1C(O)=CC(=O)c2c(O)cc(O)cc21` [flaviolin], the Kcat (Fnq26) is given as 0.000217 s⁻¹ and the Km (Fnq26) is given as 21 µM.

With tecyclo[DFRGNATYIPC] [teR6-H5A] the Kcat (LimF [2]; [6]) was 0.0167 s⁻¹ and 0.0167 ± 0.0017 s⁻¹, the Km (LimF [2]; [6]) was 7300 ± 1800 µM and the Kcat (LimF [2]; Tyr-prenylation (C10 O-), 5 μM LimF, 16° C., listed as tecyclo[DFRGNATYIPC]) was 0.0167 s⁻¹.

For “cyclo[MSGVDYYNP] (head-to-tail cyclized)”, the Kcat (PirF) is given as 0.0117 s⁻¹ and the Km (PirF) is given as 116 µM.

B1: LimF-H239G/W273T (protein)
chain: MKKRKSSKVFKSTIAPEEKLRYIGNHKQAFDIEPLYPLALFEEFVATTGDCIIECSGKIKQDQLYPARIDLQFSDKHHFHNIHTSIDFLKRAASRTDVNLNLDILATFLAGNFDYSKVQNILAGIDLRQNLGESKLKLFIRIGDYPAKMAVAKHLCNITPESEAMLRSDTLHIGFDFYLDGRSAIELYPELKKDEFNHPFIYNQLKTILSPEALKPLPLCNLFGIGLSPANEANVLYYGLENIEDFLSYFPINDTARRVHDFYLQQEGSRRMTVALSESEMKAGRINNVNLYYSKAFTSQNP
In the case of B1, the “C15 prenylation (farnesylation) selectivity and efficiency” value (bcLimE2 [3]; 100 μM bcLimE2, 1 mM GPP or FPP, 5 mM MgCl2, 16 hours, 25° C.) is reported as “high selectivity and high efficiency”, the “Final Conversion Efficiency” value (bcLimE2 [3]; prenyl group donor DMAPP) is reported as “n.r” and the “Final Conversion Efficiency” value (bcLimE2 [3]; prenyl group donor FPP) is reported as greater than 99%. The “Final Conversion Efficiency” value (bcLimE2 [3]; prenyl group donor GGPP) was “n.r”, the “Final Conversion Efficiency” value (bcLimE2 [3]; prenyl group donor GPP) was 16.9% and the KM (mM), kinetics of prenylation of bcLimE2 with FPP as prenyl group donor (bcLimE2 [4]) was 0.62 mM. For the same molecule, the KM (mM), kinetics of prenylation of bcLimE2 with GPP as prenyl group donor (bcLimE2 [4]) was 0.58 mM.

B2: wt-LimF: prenyltransferase derived from Limnothrix sp. CACIAM 69d, SEQ ID NO: 1 (protein, listed as Limnothrix sp.)
chain: B1 chain with G239H, T273W
modifications: CACIAM 69d
For B2, the “Final Conversion Efficiency” value (bcLimE2 [3]; prenyl group donor DMAPP) was “n.r”, the “Final Conversion Efficiency” value (bcLimE2 [3]; prenyl group donor FPP) was 0.0027% and the “Final Conversion Efficiency” value (bcLimE2 [3]; prenyl group donor GGPP) was “n.r”. For the same molecule, the “Final Conversion Efficiency” value (bcLimE2 [3]; prenyl group donor GPP) was greater than 99%.
